Data: patent publication US10906873B2, “Substituted cyclic amides as herbicides” (FMC Corporation, priority 2015, dated 2021)

How the values were obtained:
[1] = system: barnyardgrass (Echinochloa crus-galli); assay: Test A preemergence, barnyardgrass; assay type: in vivo; conditions: 1000 g ai/ha, 0 to 100 scale
Procedure, shortened: (§1)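 Pre: seeds planted in loam/sand, directed soil spray. Post: 2–10 cm plants, 1–2 leaf. Formulation: non-phytotoxic solvent + surfactant. Greenhouse ~10 d; visual injury vs untreated, 0 = no effect, 100 = complete control.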

[2] = system: crabgrass (large crabgrass, Digitaria sanguinalis); assay: Test A preemergence, crabgrass; assay type: in vivo; conditions: 1000 g ai/ha, 0 to 100 scale
Excerpt: (§2) Seeds of plant species selected from barnyardgrass (Echinochloa crus-galli), crabgrass (large crabgrass, Digitaria sanguinalis), kochia (Kochia scoparia), ragweed (common ragweed, Ambrosia elatior), morningglory (Ipomoea spp.), velvetleaf (Abutilon theophrasti), ryegrass, It. (Italian ryegrass, Lolium multiflorum), foxtail, giant (giant foxtail, Setaria faberii), wheat (Triticum aestivum), corn (Zea mays), and pigweed (Amaranthus retroflexus), were planted into a blend of loam soil and sand and treated preemergence with a directed soil spray using test chemicals formulated in a non-phytotoxic solvent mixture which included a surfactant. At the same time, plants selected from these crop and weed species and also blackgrass (Alopecurus myosuroides), and galium (catchweed bedstraw, Galium aparine), were planted in pots containing the same blend of loam soil and sand and treated with postemergence applications of test chemicals formulated in the same manner. Plants ranged in height from 2 to 10 cm and were in the one- to two-leaf stage for the postemergence treatment. Treated plants and untreated controls were maintained in a greenhouse for approximately 10 d, after which time all treated plants were compared to untreated controls and visually evaluated for injury. Plant response ratings, summarized in Table A, are based on a 0 to 100 scale where 0 is no effect and 100 is complete control. A dash (-) response means no test result.

[3] = system: morningglory (Ipomoea spp.); assay: Test A preemergence, morningglory; assay type: in vivo; conditions: 1000 g ai/ha, 0 to 100 scale
Excerpt: as §2

[4] = system: velvetleaf (Abutilon theophrasti); assay: Test A preemergence, velvetleaf; assay type: in vivo; conditions: 1000 g ai/ha, 0 to 100 scale
Excerpt: as §2

[5] = system: foxtail, giant (giant foxtail, Setaria faberii); assay: Test A preemergence, foxtail, giant; assay type: in vivo; conditions: 1000 g ai/ha, 0 to 100 scale
Procedure, shortened: as §1

[6] = system: wheat (Triticum aestivum); assay: Test A preemergence, wheat; assay type: in vivo; conditions: 1000 g ai/ha, 0 to 100 scale
Excerpt: as §2

corn (Zea mays) [7] = assay: Test A preemergence, corn; assay type: in vivo; conditions: 1000 g ai/ha, 0 to 100 scale
Excerpt: as §2

[8] = system: pigweed (Amaranthus retroflexus); assay: Test A preemergence, pigweed; assay type: in vivo; conditions: 1000 g ai/ha, 0 to 100 scale
Procedure, shortened: as §1

[9] = system: barnyardgrass (Echinochloa crus-galli); assay: Test A postemergence, barnyardgrass; assay type: in vivo; conditions: 1000 g ai/ha, 0 to 100 scale (0 no effect, 100 complete control)
Procedure, shortened: as §1

[10] = system: crabgrass (large crabgrass, Digitaria sanguinalis); assay: Test A postemergence, crabgrass; assay type: in vivo; conditions: 1000 g ai/ha, 0 to 100 scale
Excerpt: as §2

[11] = system: morningglory (Ipomoea spp.); assay: Test A postemergence, morningglory; assay type: in vivo; conditions: 1000 g ai/ha, 0 to 100 scale
Excerpt: as §2

[12] = system: velvetleaf (Abutilon theophrasti); assay: Test A postemergence, velvetleaf; assay type: in vivo; conditions: 1000 g ai/ha, 0 to 100 scale
Excerpt: as §2

[13] = system: foxtail, giant (giant foxtail, Setaria faberii); assay: Test A postemergence, foxtail, giant; assay type: in vivo; conditions: 1000 g ai/ha, 0 to 100 scale
Procedure, shortened: as §1

[14] = system: wheat (Triticum aestivum); assay: Test A postemergence, wheat; assay type: in vivo; conditions: 1000 g ai/ha, 0 to 100 scale
Procedure, shortened: as §1

corn (Zea mays) [15] = assay: Test A postemergence, corn; assay type: in vivo; conditions: 1000 g ai/ha, 0 to 100 scale
Procedure, shortened: as §1

[16] = system: pigweed (Amaranthus retroflexus); assay: Test A postemergence, pigweed; assay type: in vivo; conditions: 1000 g ai/ha, 0 to 100 scale
Procedure, shortened: as §1

[17] = system: barnyardgrass (Echinochloa crus-galli); assay: Test B flooded paddy test, barnyardgrass; assay type: in vivo; conditions: Flood, scale of 0 to 100 where 0 is no effect and 100 is complete control, 13 to 15 d
Procedure, shortened: (§3)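 Ratings use a 0-100 visual scale, where 100 is complete control, and compare treated plants with controls after 13 to 15 d of greenhouse growth. Compound went straight into paddy water kept 3 cm over the soil surface, applied to seedlings at the 2-leaf stage.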

[18] = system: ducksalad (Heteranthera limosa); assay: Test B flooded paddy test, ducksalad; assay type: in vivo; conditions: Flood, scale of 0 to 100 where 0 is no effect and 100 is complete control, 13 to 15 d
Procedure, shortened: as §3

rice (Oryza sativa) = assay: Test B flooded paddy test, rice; assay type: in vivo; conditions: Flood, scale of 0 to 100 where 0 is no effect and 100 is complete control, 13 to 15 d
Procedure, shortened: as §3

[19] = system: sedge, umbrella (small-flower umbrella sedge, Cyperus difformis); assay: Test B flooded paddy test, sedge, umbrella; assay type: in vivo; conditions: Flood, scale of 0 to 100 where 0 is no effect and 100 is complete control, 13 to 15 d
Procedure, shortened: as §3

Compound: O=C1NCC(Cc2cccc(Cl)c2)C1C(=O)Nc1cccc(F)c1F (stereo not shown) [Compound 1, 4-[(3-chlorophenyl)methyl]-N-(2,3-difluorophenyl)-2-oxo-3-pyrrolidinecarboxamide]
- Plant response rating, Barnyardgrass [1]: 70
- Plant response rating, Crabgrass [2]: 90
- Plant response rating, Morningglory [3]: 0
- Plant response rating, Velvetleaf [4]: 0
- Plant response rating, Foxtail, Giant [5]: 90
- Plant response rating, Wheat [6]: 0
- Plant response rating, Corn (corn (Zea mays) [7]): 0
- Plant response rating, Pigweed [8]: 0
- Plant response rating, Barnyardgrass [9]: 80
- Plant response rating, Crabgrass [10]: 80
- Plant response rating, Morningglory [11]: 0
- Plant response rating, Velvetleaf [12]: 10
- Plant response rating, Foxtail, Giant [13]: 80
- Plant response rating, Wheat [14]: 0
- Plant response rating, Corn (corn (Zea mays) [15]): 0
- Plant response rating, Pigweed [16]: 0
- Plant response rating, Barnyardgrass ([17]; 1000 g ai/ha): 0
- Plant response rating, Ducksalad ([18]; 1000 g ai/ha): 50
- Plant response rating, Rice (rice (Oryza sativa); 1000 g ai/ha): 0
- Plant response rating, Sedge, Umbrella ([19]; 1000 g ai/ha): 0
- melting point: 132 to 134 °C

Compound: O=C1NCC(Cc2cccc(Cl)c2)C1C(=O)Nc1ccccc1F (stereo not shown) [Compound 2]
- Plant response rating, Barnyardgrass [1]: 30
- Plant response rating, Crabgrass [2]: 90
- Plant response rating, Morningglory [3]: 0
- Plant response rating, Velvetleaf [4]: 0
- Plant response rating, Foxtail, Giant [5]: 80
- Plant response rating, Wheat [6]: 0
- Plant response rating, Corn (corn (Zea mays) [7]): 0
- Plant response rating, Pigweed [8]: 0
- Plant response rating, Barnyardgrass [9]: 30
- Plant response rating, Crabgrass [10]: 80
- Plant response rating, Morningglory [11]: 0
- Plant response rating, Velvetleaf [12]: 0
- Plant response rating, Foxtail, Giant [13]: 60
- Plant response rating, Wheat [14]: 0
- Plant response rating, Corn (corn (Zea mays) [15]): 0
- Plant response rating, Pigweed [16]: 0
- Plant response rating, Barnyardgrass ([17]; 1000 g ai/ha): 0
- Plant response rating, Ducksalad ([18]; 1000 g ai/ha): 0
- Plant response rating, Rice (rice (Oryza sativa); 1000 g ai/ha): 0
- Plant response rating, Sedge, Umbrella ([19]; 1000 g ai/ha): 0

Compound: O=C1NCC(Cc2ccccc2)C1C(=O)Nc1ccccc1F (stereo not shown) [Compound 3]
- Plant response rating, Barnyardgrass [1]: 0
- Plant response rating, Crabgrass [2]: 0
- Plant response rating, Morningglory [3]: 0
- Plant response rating, Velvetleaf [4]: 0
- Plant response rating, Foxtail, Giant [5]: 0
- Plant response rating, Wheat [6]: 0
- Plant response rating, Corn (corn (Zea mays) [7]): 0
- Plant response rating, Pigweed [8]: 0
- Plant response rating, Barnyardgrass [9]: 0
- Plant response rating, Crabgrass [10]: 0
- Plant response rating, Morningglory [11]: 0
- Plant response rating, Velvetleaf [12]: 0
- Plant response rating, Foxtail, Giant [13]: 0
- Plant response rating, Wheat [14]: 0
- Plant response rating, Corn (corn (Zea mays) [15]): 0
- Plant response rating, Pigweed [16]: 0

Compound: O=C1NCC(Cc2ccccc2)C1C(=O)Nc1cccc(F)c1F (stereo not shown) [Compound 4]
- Plant response rating, Barnyardgrass [1]: 0
- Plant response rating, Crabgrass [2]: 60
- Plant response rating, Morningglory [3]: 0
- Plant response rating, Velvetleaf [4]: 0
- Plant response rating, Foxtail, Giant [5]: 0
- Plant response rating, Wheat [6]: 0
- Plant response rating, Corn (corn (Zea mays) [7]): 0
- Plant response rating, Pigweed [8]: 0
- Plant response rating, Barnyardgrass [9]: 0
- Plant response rating, Crabgrass [10]: 20
- Plant response rating, Morningglory [11]: 0
- Plant response rating, Velvetleaf [12]: 0
- Plant response rating, Foxtail, Giant [13]: 0
- Plant response rating, Wheat [14]: 0
- Plant response rating, Corn (corn (Zea mays) [15]): 0
- Plant response rating, Pigweed [16]: 0

Compound: O=C1NCC(Cc2ccc(F)cc2)C1C(=O)Nc1cccc(F)c1F (stereo not shown) [Compound 13, N-(2,3-difluorophenyl)-4-[(4-fluorophenyl)methyl]-2-oxo-3-pyrrolidinecarboxamide]
- Plant response rating, Barnyardgrass [1]: 80
- Plant response rating, Crabgrass [2]: 80
- Plant response rating, Morningglory [3]: 0
- Plant response rating, Velvetleaf [4]: 0
- Plant response rating, Foxtail, Giant [5]: 60
- Plant response rating, Wheat [6]: 0
- Plant response rating, Corn (corn (Zea mays) [7]): 0
- Plant response rating, Pigweed [8]: 0
- Plant response rating, Barnyardgrass [9]: 80
- Plant response rating, Crabgrass [10]: 80
- Plant response rating, Morningglory [11]: 0
- Plant response rating, Velvetleaf [12]: 0
- Plant response rating, Foxtail, Giant [13]: 60
- Plant response rating, Wheat [14]: 0
- Plant response rating, Corn (corn (Zea mays) [15]): 0
- Plant response rating, Pigweed [16]: 0
- Plant response rating, Barnyardgrass ([17]; 250 g ai/ha): 0
- Plant response rating, Ducksalad ([18]; 250 g ai/ha): 0
- Plant response rating, Rice (rice (Oryza sativa); 250 g ai/ha): 0
- Plant response rating, Sedge, Umbrella ([19]; 250 g ai/ha): 0

Compound: O=C1NCC(Cc2ccc(F)cc2)C1C(=O)Nc1ccccc1F (stereo not shown) [Compound 14]
- Plant response rating, Barnyardgrass [1]: 20
- Plant response rating, Crabgrass [2]: 80
- Plant response rating, Morningglory [3]: 0
- Plant response rating, Velvetleaf [4]: 0
- Plant response rating, Foxtail, Giant [5]: 30
- Plant response rating, Wheat [6]: 0
- Plant response rating, Corn (corn (Zea mays) [7]): 0
- Plant response rating, Pigweed [8]: 0
- Plant response rating, Barnyardgrass [9]: 0
- Plant response rating, Crabgrass [10]: 20
- Plant response rating, Morningglory [11]: 0
- Plant response rating, Velvetleaf [12]: 0
- Plant response rating, Foxtail, Giant [13]: 0
- Plant response rating, Wheat [14]: 0
- Plant response rating, Corn (corn (Zea mays) [15]): 0
- Plant response rating, Pigweed [16]: 0
